From EP4722195A1, “PH-SENSITIVE CATIONIC LIPID AND LIPID NANOPARTICLES” (National University Corporation Hokkaido University, priority 2023, dated 2024)

Columns and labels:
[1] = Average particle size and polydispersity index of lipid nanoparticles (dynamic light scattering); assay type: physicochemical
Protocol: (§1) The average particle size (number average value), ζ-average particle size, and polydispersity index (PdI) of the lipid nanoparticles in PBS(-) (pH 7.4), and the zeta potential in 10 mM HEPES buffer (pH 7.4) were measured using an analyzer "Zetasizer Nano ZS ZEN3600" (manufactured by Malvern) utilizing dynamic light scattering.

[2] = Zeta potential of lipid nanoparticles; assay type: physicochemical
Protocol: as §1

[3] = Encapsulation rate of lipid nanoparticles (Ribogreen); assay type: physicochemical
Summary of the method: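 Ribogreen fluorescence (Ex/Em 500/525 nm) measured after mixing sample 1:1 with 10 mM HEPES pH 7.4 buffer with or without Triton X-100. mRNA quantified from a calibration curve of known mRNA dilutions; encapsulation rate (%) calculated from Triton(+) versus Triton(−) signals.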

[4] = test system: liver; assay: EGFP expression in liver tissue sections of mice administered EGFP mRNA-loaded lipid nanoparticles (confocal microscopy); assay type: in vivo, Balb/c mice
Summary of the method: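 Balb/c mice received EGFP mRNA-loaded lipid nanoparticles at 0.2 mg mRNA/kg, with DyLight-649 tomato lectin given i.v. at 40 µg/mouse at 23 h 50 min to mark vascular endothelium. Livers taken at 24 h were sectioned, Hoechst 33342-stained (1 µg/mL), and imaged by confocal laser scanning microscopy.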

[5] = Apparent pKa of lipid nanoparticles (TNS)
[6] = Table 1, Fluc mRNA-loaded lipid nanoparticles, TxT/DSPC/chol/PEG-DMG=50/15/35/1.5 (mol%)
[7] = Table 3, Fluc mRNA-loaded lipid nanoparticles, TxT/DSPC/chol/PEG-DMG=50/3/47/1.5 (mol%)
[8] = Table 4, Fluc mRNA-loaded lipid nanoparticles, TxT-5-5A14/DSPC/chol/PEG-DMG=50/3/47/1.5, SM-102, ALC-0315 or MC3/DSPC/chol/PEG-DMG=50/10/40/1.5 (mol%)
[9] = Table 5, EGFP mRNA-loaded lipid nanoparticles, TxT/DSPC/chol/PEG-DMG=50/3/47/1.5 (mol%), total flow rate 3.0 mL/min
[10] = Table 6 (Example 28), Fluc mRNA-loaded lipid nanoparticles, TxT/DSPC/chol/PEG-DMG=50/3/47/1.5 (mol%)
[11] = Table 7, hEPO mRNA-loaded lipid nanoparticles, TxT/DSPC/chol/PEG-DMG=50/3/47/1.5, SM-102/DSPC/chol/PEG-DMG=50/10/40/1.5 (mol%)
[12] = Table 8 (Example 32), lipid nanoparticles for TTR-targeted genome editing, Cas9-mRNA and TTR-gRNA 1:2 (N/P = 6.0), TxT/DSPC/chol/PEG-DMG = 50/3/47/1.5 (mol%)
[13] = Table 9 (Example 33), lipid nanoparticles for TTR-targeted genome editing, Cas9-mRNA and TTR-gRNA 1:2 (N/P = 6.0), TxT-5-5A14/DSPC/chol/PEG-DMG = 50/3/47/1.5 (mol%)
[14] = Table 10 (Example 34), lipid nanoparticles for PCSK9-targeted genome editing, Cas9-mRNA and PCSK9-gRNA 1:2 (N/P = 6.0), TxT-5-5A14/DSPC/chol/PEG-DMG = 50/3/47/1.5 (mol%)
[15] = Example 27, Fig. 6, EGFP mRNA-loaded lipid nanoparticles TxT/DSPC/chol/PEG-DMG=50/3/47/1.5 (mol%), 24 hours post-administration
[16] = Table 1, apparent pKa of Fluc mRNA-loaded lipid nanoparticles, TxT/DSPC/chol/PEG-DMG=50/15/35/1.5 (mol%)
[17] = Table 2, Fluc mRNA-loaded lipid nanoparticles, TxT-5-5A16/DSPC/chol/PEG-DMG=50/X/50-X/1.5 (mol%), DSPC concentration 3 mol %
[18] = Table 2, Fluc mRNA-loaded lipid nanoparticles, TxT-5-5A16/DSPC/chol/PEG-DMG=50/X/50-X/1.5 (mol%), DSPC concentration 6 mol %
[19] = Table 2, Fluc mRNA-loaded lipid nanoparticles, TxT-5-5A16/DSPC/chol/PEG-DMG=50/X/50-X/1.5 (mol%), DSPC concentration 9 mol %
[20] = Table 2, Fluc mRNA-loaded lipid nanoparticles, TxT-5-5A16/DSPC/chol/PEG-DMG=50/X/50-X/1.5 (mol%), DSPC concentration 12 mol %
[21] = Table 2, Fluc mRNA-loaded lipid nanoparticles, TxT-5-5A16/DSPC/chol/PEG-DMG=50/X/50-X/1.5 (mol%), DSPC concentration 15 mol %

CCCCCCCN(CCCCCCC)C(=O)CCCC(=O)OCC(COC(=O)CCCC(=O)N(CCCCCCC)CCCCCCC)(COC(=O)CCCC(=O)N(CCCCCCC)CCCCCCC)NC(=O)CCN1CCCCC1 [TxT-5-5A14, 2-(((5-(diheptylamino)-5-oxopentanoyl)oxy)methyl)-2-(3-(piperidin-1-yl)propanamido)propane-1,3-diyl bis(5-(diheptylamino)-5-oxopentanoate)]
Pdl [1, 6]: 0.11 | number average particle size [1, 6]: 72.4 nm | ζ-average particle size [1, 6]: 106.2 nm | Pdl [1, 7]: 0.08 | number average particle size [1, 7]: 78.9 nm | ζ-average particle size [1, 7]: 101.0 nm | Pdl [1, 8]: 0.08 | number average particle size [1, 8]: 82.4 nm | ζ-average particle size [1, 8]: 113.8 nm | Pdl [1, 9]: 0.06 | number average particle size [1, 9]: 80.9 nm | ζ-average particle size [1, 9]: 106.0 nm | Pdl [1, 10]: 0.09 | number average particle size [1, 10]: 79.6 nm | ζ-average particle size [1, 10]: 107.7 nm | Pdl [1, 11]: 0.04 | number average particle size [1, 11]: 76.6 nm | ζ-average particle size [1, 11]: 103.4 nm | Pdl [1, 12]: 0.05 | number average particle size [1, 12]: 66.4 nm | ζ-average particle size [1, 12]: 82.2 nm | Pdl [1, 13]: 0.10 | number average particle size [1, 13]: 67.7 nm | ζ-average particle size [1, 13]: 91.8 nm | Pdl [1, 14]: 0.10 | number average particle size [1, 14]: 73.6 nm | ζ-average particle size [1, 14]: 99.4 nm | ζ-potential [2, 6]: -3.4 mV | ζ-potential [2, 7]: -7.5 mV | ζ-potential [2, 8]: -8.9 mV | ζ-potential [2, 9]: -13.0 mV | ζ-potential [2, 10]: -6.4 mV | ζ-potential [2, 11]: -1.4 mV | ζ-potential [2, 12]: -5.5 mV | ζ-potential [2, 13]: -4.0 mV | ζ-potential [2, 14]: -1.6 mV | mRNA concentration [3, 6]: 0.025 µg/µL | mRNA encapsulation rate [3, 6]: 98.8% | mRNA concentration [3, 7]: 0.022 µg/µL | mRNA encapsulation rate [3, 7]: 98.6% | mRNA concentration [3, 8]: 0.022 µg/µL | mRNA encapsulation rate [3, 8]: 99.4% | mRNA concentration [3, 9]: 0.023 µg/µL | mRNA encapsulation rate [3, 9]: 99.0% | mRNA concentration [3, 10]: 0.021 µg/µL | mRNA encapsulation rate [3, 10]: 98.2% | mRNA concentration [3, 11]: 0.022 µg/µL | mRNA encapsulation rate [3, 11]: 99.3% | mRNA concentration [3, 12]: 0.467 µg/µL | mRNA encapsulation rate [3, 12]: 96.5% | mRNA concentration [3, 13]: 0.037 µg/µL | mRNA encapsulation rate [3, 13]: 99.1% | mRNA concentration [3, 14]: 0.311 µg/µL | mRNA encapsulation rate [3, 14]: 97.1% | GFP expression in cell types of the liver ([4]; Example 26, Fig. 5, EGFP mRNA-loaded lipid nanoparticles 50/3/47/1.5 (mol%), 0.2 mg mRNA/kg, 24 hours after administration): GFP expression was observed not only in hepatocytes but also in vascular endothelial cells | fluorescence of EGFP in the liver tissues [4, 15]: fluorescence of EGFP was observed | gene expression in hepatocytes [4, 15]: notably high levels of gene expression | pKa [5, 16]: 4.99 | pKa [5, 7]: 6.46 | pKa [5, 8]: 6.53

CCCCCCCCN(CCCCCCCC)C(=O)CCCC(=O)OCC(COC(=O)CCCC(=O)N(CCCCCCCC)CCCCCCCC)(COC(=O)CCCC(=O)N(CCCCCCCC)CCCCCCCC)NC(=O)CCN1CCCCC1 [TxT-5-5A16, 2-(((5-(dioctylamino)-5-oxopentanoyl)oxy)methyl)-2-(3-(piperidin-1-yl)propanamido)propane-1,3-diyl bis(5-(dioctylamino)-5-oxopentanoate)]
Pdl [1, 6]: 0.11 | number average particle size [1, 6]: 61.0 nm | ζ-average particle size [1, 6]: 85.6 nm | Pdl [1, 17]: 0.0 | number average particle size [1, 17]: 93.3 nm | ζ-average particle size [1, 17]: 114.0 nm | Pdl [1, 18]: 0.04 | number average particle size [1, 18]: 78.6 nm | ζ-average particle size [1, 18]: 96.8 nm | Pdl [1, 19]: 0.08 | number average particle size [1, 19]: 66.3 nm | ζ-average particle size [1, 19]: 90.2 nm | Pdl [1, 20]: 0.07 | number average particle size [1, 20]: 64.4 nm | ζ-average particle size [1, 20]: 85.1 nm | Pdl [1, 21]: 0.14 | number average particle size [1, 21]: 60.8 nm | ζ-average particle size [1, 21]: 88.3 nm | Pdl [1, 7]: 0.03 | number average particle size [1, 7]: 93.3 nm | ζ-average particle size [1, 7]: 114.0 nm | Pdl [1, 9]: 0.04 | number average particle size [1, 9]: 112.5 nm | ζ-average particle size [1, 9]: 132.4 nm | ζ-potential [2, 6]: -3.3 mV | ζ-potential [2, 17]: -2.7 mV | ζ-potential [2, 18]: -2.4 mV | ζ-potential [2, 19]: -2.2 mV | ζ-potential [2, 20]: -1.9 mV | ζ-potential [2, 21]: -4.1 mV | ζ-potential [2, 7]: -2.7 mV | ζ-potential [2, 9]: -8.4 mV | mRNA concentration [3, 6]: 0.020 µg/µL | mRNA encapsulation rate [3, 6]: 96.7% | mRNA concentration [3, 17]: 0.023 µg/µL | mRNA encapsulation rate [3, 17]: 98.8% | mRNA concentration [3, 18]: 0.024 µg/µL | mRNA encapsulation rate [3, 18]: 98.9% | mRNA concentration [3, 19]: 0.024 µg/µL | mRNA encapsulation rate [3, 19]: 98.3% | mRNA concentration [3, 20]: 0.024 µg/µL | mRNA encapsulation rate [3, 20]: 97.0% | mRNA concentration [3, 21]: 0.020 µg/µL | mRNA encapsulation rate [3, 21]: 95.6% | mRNA concentration [3, 7]: 0.023 µg/µL | mRNA encapsulation rate [3, 7]: 98.8% | mRNA concentration [3, 9]: 0.022 µg/µL | mRNA encapsulation rate [3, 9]: 99.2% | fluorescence of EGFP in the liver tissues [4, 15]: not detectable | pKa [5, 16]: 6.27 | pKa [5, 17]: 6.28 | pKa [5, 18]: 5.88 | pKa [5, 19]: 5.41 | pKa [5, 20]: 6.24 | pKa [5, 21]: 6.36 | pKa [5, 7]: 6.28
